In one data set the target is T1, CYP2C8 (Homo sapiens, UniProt P10632).
T1 construct: Pooled human microsomes were obtained from Sekisui XenoTech, KS; tissue Sekisui XenoTech, KS; host or cells: pooled human liver microsomes
T1 sequence (P10632 1-490): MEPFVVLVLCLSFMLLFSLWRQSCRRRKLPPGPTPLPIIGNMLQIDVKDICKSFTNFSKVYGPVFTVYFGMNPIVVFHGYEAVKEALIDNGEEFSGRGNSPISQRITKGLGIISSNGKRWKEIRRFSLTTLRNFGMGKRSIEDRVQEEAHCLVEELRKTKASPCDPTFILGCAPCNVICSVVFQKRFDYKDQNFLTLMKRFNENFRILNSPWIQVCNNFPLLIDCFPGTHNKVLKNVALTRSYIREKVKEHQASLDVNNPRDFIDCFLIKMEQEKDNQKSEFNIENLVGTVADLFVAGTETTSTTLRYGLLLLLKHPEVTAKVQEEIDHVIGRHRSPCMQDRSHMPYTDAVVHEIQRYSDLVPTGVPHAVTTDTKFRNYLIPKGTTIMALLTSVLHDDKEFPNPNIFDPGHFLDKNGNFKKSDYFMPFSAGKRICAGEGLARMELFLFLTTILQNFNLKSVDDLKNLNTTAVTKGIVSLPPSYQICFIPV
Put plainly: CYP Inhibition Assay (CYP2C8, human liver microsomes, paclitaxel substrate). In kind it is in vitro ADME. Particulars: pH 7.4; pooled human liver microsomes 0.1 mg/mL, probe substrate paclitaxel. The protocol: Example B: CYP Inhibition Assay
Objective: To assess the % inhibition of test compounds against CYP2C8 enzyme in human liver microsomes.
Pooled human microsomes were obtained from Sekisui XenoTech, KS, and were used for in vitro assessment of compound inhibitory potential of the major drug metabolizing human CYP enzymes.
Test compounds were dissolved in DMSO as 10 mM stock solutions and diluted to 200 µM in acetonitrile as working solutions. The total concentrations of DMSO and acetonitrile were 0.02% and 0.5%, respectively, in the assay.
The assay was performed in duplicate in a 96-well plate. The reaction mixture ([…]) containing a final concentration of 0.1 mg/mL pooled human liver microsomes, 50 mM potassium phosphate, pH 7.4 buffer, was re-warmed at 37° C. for 5 minutes. The reaction was initiated with NADPH solution which was at 1 mM final concentration, and carried out for 5 minutes at 37° C. It was terminated by the addition of 3-fold volume of quench solution (1:1 acetonitrile:methanol with 0.1% formic acid and the internal standard of tolbutamide). The sample was vortexed, centrifuged at 4,000 rpm for 15 min at 4° C. The incubation in the presence of vehicle (0.02% DMSO and 0.5% acetonitrile) was used as the enzyme activity control. The analyses of metabolite 6α-hydroxypaclitaxel in supernatant was performed with LC-MS/MS method (Sciex API 4500 Qtrap coupled to a Shimadzu LC-20AD HPLC).
The CYP enzyme activity was determined based on the formation of 6a-hydroxypaclitaxel metabolite. The % inhibition was calculated using this equation: % Inhibition=100×(1−Ainactivator/Avehicle), where Ainactivator is the CYP enzyme activity in the presence of test compound, and Avehicle is the CYP activity in the presence of vehicle.
(Liver microsomes are a subcellular fraction often used to study metabolism.)

The target of a further data set is T2, GR (Homo sapiens, UniProt P04150).
T2 construct: expressed in transfected cells; host or cells: CHO-K1
T2 sequence (P04150 1-777): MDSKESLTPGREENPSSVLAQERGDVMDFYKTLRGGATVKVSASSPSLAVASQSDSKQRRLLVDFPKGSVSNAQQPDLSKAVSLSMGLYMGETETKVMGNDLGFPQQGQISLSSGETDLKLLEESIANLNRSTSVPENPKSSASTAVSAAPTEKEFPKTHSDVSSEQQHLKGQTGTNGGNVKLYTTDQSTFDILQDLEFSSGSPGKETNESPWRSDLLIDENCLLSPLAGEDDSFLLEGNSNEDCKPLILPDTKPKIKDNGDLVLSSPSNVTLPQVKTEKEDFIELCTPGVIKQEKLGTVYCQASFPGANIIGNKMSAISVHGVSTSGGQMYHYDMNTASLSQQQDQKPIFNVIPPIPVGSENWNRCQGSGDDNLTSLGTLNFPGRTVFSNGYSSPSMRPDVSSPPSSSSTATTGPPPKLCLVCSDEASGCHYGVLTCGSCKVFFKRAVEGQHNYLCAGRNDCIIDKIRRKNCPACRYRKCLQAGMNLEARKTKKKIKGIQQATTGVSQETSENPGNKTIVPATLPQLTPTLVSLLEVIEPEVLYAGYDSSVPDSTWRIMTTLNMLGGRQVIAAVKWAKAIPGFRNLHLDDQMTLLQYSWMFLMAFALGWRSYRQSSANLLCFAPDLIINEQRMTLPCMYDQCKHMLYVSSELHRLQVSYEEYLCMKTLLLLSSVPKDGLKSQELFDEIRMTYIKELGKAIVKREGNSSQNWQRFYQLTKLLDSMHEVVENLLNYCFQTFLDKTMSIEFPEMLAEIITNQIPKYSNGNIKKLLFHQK
Put plainly: In Vitro GR Luciferase Reporter Assay (antagonist mode, CHO-K1-GR-MMTV-Luc reporter cells). In kind it is cell-based. The method, boiled down: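 Antagonist mode: compounds (8 serial 1:5 dilutions) added to GR-MMTV-luciferase CHO-K1 reporter cells co-exposed to 10 nM dexamethasone final, in phenol red-free DMEM plus 10% CSS. After roughly 18-24 h at 37° C, OneGlo luminescence read and IC50 calculated.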
On the technique in general: Reporter assays use an easily measured gene product as a stand-in for the process of interest.

The mark [1] stands for this setting: antagonist mode, 10 nM Dexamethasone.
[2] abbreviates: antagonist assay with 10 nM Dexamethasone, 18-24 hours.

What is called inhibition is the drop in the measured response relative to a control, in per cent. A lower inhibition goes with little suppression. Broadly, the IC50 is the concentration that inhibits the measured activity by half. Lower therefore signals inhibition by little substance.

Compound `CN(C(=O)[C@H]1CCC2=Cc3c(cnn3-c3ccc(F)cc3)C[C@]2(C(=O)c2cc(C(F)(F)F)ccn2)C1)c1cnn(C)c1` (single isomer, unassigned) [Example 122] yielded an inhibition at 5 min against CYP2C8 of at most 25%. This compound also showed a concentration for half-maximal inhibition (IC50) against GR (setting [1]) of at most 100 nM.

On CYP2C8, `CN([C@H]1CCC2=Cc3c(cnn3-c3ccc(F)cc3)C[C@]2(C(=O)c2ccccn2)C1)S(=O)(=O)c1ccc(Cl)cc1` [Example 4, 4-Chloro-N-((4aS,6S)-1-(4-fluorophenyl)-4a-picolinoyl-4,4a,5,6,7,8-hexahydro-1H-benzo[f]indazol-6-yl)-N-methylbenzenesulfonamide] had an inhibition at 5 min of 50 to 75%. The concentration for half-maximal inhibition (IC50) against GR (setting [2]) is at most 100 nM.

`CCn1ncc(S(=O)(=O)[C@H]2CCC3=Cc4c(cnn4-c4ccc(F)cc4)C[C@]3(C(=O)c3cc(C(F)(F)F)ccn3)C2)n1` [Example 52, ((4aS,6S)-6-((2-ethyl-2H-1,2,3-triazol-4-yl)sulfonyl)-1-(4-fluorophenyl)-1,4,5,6,7,8-hexahydro-4aH-benzo[f]indazol-4a-yl)(4-(trifluoromethyl)pyridin-2-yl)methanone]: on CYP2C8, the inhibition at 5 min is 75 to 90%. Further, at GR (setting [2]), the IC50 was at most 100 nM.

For the compound `O=C(c1ccc(C(F)(F)F)cn1)[C@]12Cc3cnn(-c4ccc(F)cc4)c3C=C1CC[C@H](S(=O)(=O)c1ccc(F)cc1)C2` [Example 55, ((4aS,6S)-1-(4-fluorophenyl)-6-((4-fluorophenyl)sulfonyl)-1,4,5,6,7,8-hexahydro-4aH-benzo[f]indazol-4a-yl)(5-(trifluoromethyl)pyridin-2-yl)methanone], the inhibition at 5 min against CYP2C8 was at most 25%. The same compound registered an IC50 against GR (setting [2]) of at most 100 nM.

The compound `CC(C)n1ncc(S(=O)(=O)[C@H]2CCC3=Cc4c(cnn4-c4ccc(F)cc4)C[C@]3(C(=O)c3cc(C(F)(F)F)ccn3)C2)n1` [Example 56, ((4aS,6S)-1-(4-fluorophenyl)-6-((2-isopropyl-2H-1,2,3-triazol-4-yl)sulfonyl)-1,4,5,6,7,8-hexahydro-4aH-benzo[f]indazol-4a-yl)(4-(trifluoromethyl)pyridin-2-yl)methanone] yielded an inhibition at 5 min against CYP2C8 of 75 to 90%. On GR (setting [2]), this compound displayed a 50% inhibitory concentration (IC50) of at most 100 nM.

As for `Cn1cc(S(=O)(=O)[C@H]2CCC3=Cc4c(cnn4-c4ccc(F)cc4)C[C@]3(C(=O)c3ccc(C(F)(F)F)cn3)C2)cn1` [Example 69, ((4aS,6S)-1-(4-fluorophenyl)-6-((1-methyl-1H-pyrazol-4-yl)sulfonyl)-1,4,5,6,7,8-hexahydro-4aH-benzo[f]indazol-4a-yl)(5-(trifluoromethyl)pyridin-2-yl)methanone], the inhibition at 5 min on CYP2C8 was at most 25%. The compound also registered a half-maximal inhibitory concentration (IC50) on GR (setting [2]) of at most 100 nM.

The compound `CN([C@H]1CCC2=Cc3c(cnn3-c3ccc(F)cc3)C[C@]2(C(=O)c2cc(C(F)(F)F)ccn2)C1)S(=O)(=O)c1cnn(C)c1` [Example 81, N-((4aS,6S)-1-(4-fluorophenyl)-4a-(4-(trifluoromethyl)picolinoyl)-4,4a,5,6,7,8-hexahydro-1H-benzo[f]indazol-6-yl)-N,1-dimethyl-1H-pyrazole-4-sulfonamide] yielded an inhibition at 5 min against CYP2C8 of 25 to 50%. This compound displayed an IC50 against GR (setting [2]) of at most 100 nM.

With `CN([C@H]1CCC2=Cc3c(cnn3-c3ccc(F)cc3)C[C@]2(C(=O)c2cc(C(F)(F)F)ccn2)C1)S(=O)(=O)c1cnn(C)n1` [Example 90, N-((4aS,6S)-1-(4-fluorophenyl)-4a-(4-(trifluoromethyl)picolinoyl)-4,4a,5,6,7,8-hexahydro-1H-benzo[f]indazol-6-yl)-N,2-dimethyl-2H-1,2,3-triazole-4-sulfonamide], on CYP2C8, the inhibition at 5 min fell in the range of 50 to 75%. On GR (setting [2]), this compound gave a 50% inhibitory concentration (IC50) of at most 100 nM.

Compound `Cn1cnc(S(=O)(=O)N(CCF)[C@H]2CCC3=Cc4c(cnn4-c4ccc(F)cc4)C[C@]3(C(=O)c3ncc(C(F)(F)F)s3)C2)n1` [Example 112, N-(2-Fluoroethyl)-N-((4aS,6S)-1-(4-fluorophenyl)-4a-(5-(trifluoromethyl)thiazole-2-carbonyl)-4,4a,5,6,7,8-hexahydro-1H-benzo[f]indazol-6-yl)-1-methyl-1H-1,2,4-triazole-3-sulfonamide] showed an inhibition at 5 min on CYP2C8 of 75 to 90%.

`O=C(c1cc(C(F)(F)F)ccn1)[C@]12Cc3cnn(-c4ccc(F)cc4)c3C=C1CC[C@H](N(CC(F)F)S(=O)(=O)c1ccc(F)cc1)C2` [Example 407, N-(2,2-difluoroethyl)-4-fluoro-N-((4aS,6S)-1-(4-fluorophenyl)-4a-(4-(trifluoromethyl)picolinoyl)-4,4a,5,6,7,8-hexahydro-1H-benzo[f]indazol-6-yl)benzenesulfonamide]: the IC50 against GR (setting [1]) is at most 100 nM.

Compound `Cn1ccc(S(=O)(=O)N([C@H]2CCC3=Cc4c(cnn4-c4ccc(F)cc4)C[C@]3(C(=O)c3ncc(C(F)(F)F)s3)C2)[C@H]2C[C@@H](C#N)C2)n1` [Example 408, N-((1s,3R)-3-cyanocyclobutyl)-N-((4aS,6S)-1-(4-fluorophenyl)-4a-(5-(trifluoromethyl)thiazole-2-carbonyl)-4,4a,5,6,7,8-hexahydro-1H-benzo[f]indazol-6-yl)-1-methyl-1H-pyrazole-3-sulfonamide] had an IC50 on GR (setting [1]) of at most 100 nM.

`Cn1cnc(S(=O)(=O)N(CC2CC2)[C@H]2CCC3=Cc4c(cnn4-c4ccc(F)cc4)C[C@]3(C(=O)c3cc(F)ccn3)C2)n1` [Example 409, N-(cyclopropylmethyl)-N-((4aS,6S)-1-(4-fluorophenyl)-4a-(4-fluoropicolinoyl)-4,4a,5,6,7,8-hexahydro-1H-benzo[f]indazol-6-yl)-1-methyl-1H-1,2,4-triazole-3-sulfonamide]: the concentration for half-maximal inhibition (IC50) at GR (setting [1]) was at most 100 nM.

`Cn1cnc(S(=O)(=O)N(CC2CC2)[C@H]2CCC3=Cc4c(cnn4-c4ccc(F)cc4)C[C@]3(C(=O)c3cc(Cl)ccn3)C2)n1` [Example 410, N-((4aS,6S)-4a-(4-chloropicolinoyl)-1-(4-fluorophenyl)-4,4a,5,6,7,8-hexahydro-1H-benzo[f]indazol-6-yl)-N-(cyclopropylmethyl)-1-methyl-1H-1,2,4-triazole-3-sulfonamide] registered an IC50 against GR (setting [1]) of at most 100 nM.

Regarding `Cn1cc(S(=O)(=O)N(C2CC(F)(F)C2)[C@H]2CCC3=Cc4c(cnn4-c4ccc(F)cc4)C[C@]3(C(=O)c3cc(C(F)(F)F)ccn3)C2)cn1` [Example 411, N-(3,3-difluorocyclobutyl)-N-((4aS,6S)-1-(4-fluorophenyl)-4a-(4-(trifluoromethyl)picolinoyl)-4,4a,5,6,7,8-hexahydro-1H-benzo[f]indazol-6-yl)-1-methyl-1H-pyrazole-4-sulfonamide], the IC50 at GR (setting [1]) is at most 100 nM.

(Values after patent publication US20210122730A1, “GLUCOCORTICOID RECEPTOR MODULATORS” (ORIC Pharmaceuticals, Inc., priority 2017, published 2021).)
